Assay results reported in article PMC5988308, “Rhodanine derivatives as potent anti-HIV and anti-HSV microbicides” (PLoS ONE, 2018).
Read-outs that look alike come from different tables or passages of the source.

Tests used:
[1] = test system: HIV-1 AD8 (CCR5-tropic strain); assay: Antiviral activity on TZM-bl cells infected with HIV-1 AD8 (CPRG assay); format: cell-based; settings: Human immunodeficiency virus 1, TZM-bl cells
Procedure: The human TZM-bl indicator cell line (obtained from the NIH AIDS reagents program, cat. Nr 8129 (www.aidsreagent.org) and maintained at 37°C and 5% CO2 in Dulbecco’s modified Eagle’s medium (DMEM) medium containing 10% fetal bovine serum, 50 μg/mL penicillin, and 50 μg/mL streptomycin. The HIV-1 laboratory strains NL(AD8) (NIH AIDS reagents program, cat.nr 11346), NL4.3 (NIH AIDS reagents program, cat. Nr. 114) were titrated as previously reported. Briefly, serial 5-fold dilutions of each virus were made in quadruplicate wells in 96-well culture plates, in a total volume of 100 μL of growth medium (DMEM), for a total of 8 dilution steps. Freshly trypsinized cells (20,000 cells in 100 μL of growth medium containing 75 μg/mL DEAE-dextran) were added to each well, and the plates were incubated at 37°C in a humidified 5% CO2-95% air environment. After 48 h of incubation, the medium was removed and viral infection was quantified using a β-galactosidase (CPRG) assay (Roche). Twenty thousand TZM-bl cells/well were seeded in 96-well plates in complete DMEM supplemented with 30 μg/mL DEAE-dextran (Sigma-Aldrich). Three hundred times the 50% tissue culture infective dose (TCID50)/mL of each strain was pretreated for 1 h at 37°C with six serial dilutions ([…] to 3.2 nM) of each compound and then added to the cells, as previously described. Vehicle (0.1% dimethyl sulfoxide [DMSO])-treated cells served as a negative control. […] After 2 days, viral infection was quantified using a CPRG assay (Roche). The inhibitory curves were fitted by nonlinear regression, allowing for the calculation of the 50% inhibitory concentration (IC50) using the Prism software. To evaluate the cell toxicity of the compounds, the metabolic XTT [2,3-bis-(2-methoxy-4-nitro-5-sulfophenyl)-2H-tetrazolium-5-carboxanilide] test (Sigma-Aldrich) was performed according to the manufacturer’s instructions.

[2] = Parallel Artificial Membrane Permeability Assay (PAMPA); format: in vitro ADME; settings: pH 7.4, 5 h
Procedure: Donor solution (0.5 mM) was prepared by diluting 1 mM dimethylsulfoxide (DMSO) compound stock solution using phosphate buffer (pH 7.4, 0.025 M). Filters were coated with 5 μL of a 1% (w/v) dodecane solution of L-α-phosphatidylcholine. Donor solution (150 μL) was added to each well of the filter plate. To each well of the acceptor plate were added 300 μL of solution (50% DMSO in phosphate buffer). All compounds were tested in three different plates on different days. The sandwich was incubated for 5 h at room temperature under gentle shaking. After the incubation time, the plates were separated, and samples were taken from both receiver and donor sides and analyzed using UV/HPLC-MS gradient method above reported. Permeability (Papp) for PAMPA, were calculated according to the following equation, obtained from Wohnsland and Faller and Sugano [37] equation with some modification in order to obtain permeability values in cm s-1, Papp=VDVA/(VD+VA)At−ln(1−r) where VA is the volume in the acceptor well, VD is the volume in the donor well (cm^3), A is the “effective area” of the membrane (cm^2), t is the incubation time (s) and r the ratio between drug concentration in the acceptor and equilibrium concentration of the drug in the total volume (VD+VA). Drug concentration is estimated by using the peak area integration.

[3] = biological target: bovine serum albumin (BSA) (Bos taurus, UniProt P02769); assay: Albumin binding fluorimetric assay, BSA; settings: fluorescence quenching, 10 μM BSA
Procedure: The binding of each compounds to HSA (human serum albumin) and BSA (bovine serum albumin) were monitored by fluorescence spectroscopy in order to determine the dissociation constant (Kd). A quantitative analysis of the potential interaction was performed by fluorimetric analysis using 96 multiwell plates: in each well a fixed concentration of HSA or BSA (10μM in phosphate buffer 1 mM), was added with different amounts of tested compound (0.1μM to 500μM by stock solutions in DMSO). Plates were gently shacked and after allowing 30 minutes at room temperature for equilibration, after excitation at 295nm, spectra were recorded from 300 to 400 nm with a Perkin Elmer EnVision Multilabel Reader 2014 spectrofluorimeter, spectra were acquired with EnVision Manager ver.1.13 software. The obtained fluorescence quenching percentages were plotted against drug concentrations and the relative Kd values were obtained using GraphPad software (version 6.0).

[4] = Vero cell viability (MTS assay); format: cell-based; settings: African green monkey
Procedure: African green monkey fibroblastoid kidney cells (Vero, ATCC CCL-81) were grown as monolayers in Eagle's minimal essential medium (MEM) (Gibco/BRL, Gaithersburg, MD) supplemented with 10% heat inactivated fetal calf serum (FCS) and 1% antibiotic-antimycotic solution (Zell Shield, Minerva Biolabs GmbH, Berlin, Germany).
Cell viability was measured using the MTS [3-(4,5-dimethylthiazol-2-yl)-5-(3-carboxymethoxyphenyl)-2-(4-sulfophenyl)-2H-tetrazolium] assay. Cell cultures were seeded in 96-well plates were incubated with different concentrations of compounds in triplicate under the same experimental conditions described for the antiviral assays. Cell viability was determined using the CellTiter 96 Proliferation Assay Kit (Promega, Madison, WI, USA) according to the manufacturer's instructions. Absorbances were measured using a Microplate Reader (Model 680, BIORAD) at 490 nm. The effect on cell viability at different concentrations of the compound was expressed as a percentage, by comparing absorbances of treated cells with those of cells incubated with culture medium and equal volumes of vehicle.

[5] = pre-incubation in complete medium containing fetal bovine serum (FBS), read-out: AD8 EC50 a
[6] = pre-incubation with virus without serum, read-out: AD8 EC50
[7] = Vero cells, HSV-2 assay conditions, read-out: Citotoxicity (Vero cells) CC50

Chain of bovine serum albumin (BSA) (P02769 25-607): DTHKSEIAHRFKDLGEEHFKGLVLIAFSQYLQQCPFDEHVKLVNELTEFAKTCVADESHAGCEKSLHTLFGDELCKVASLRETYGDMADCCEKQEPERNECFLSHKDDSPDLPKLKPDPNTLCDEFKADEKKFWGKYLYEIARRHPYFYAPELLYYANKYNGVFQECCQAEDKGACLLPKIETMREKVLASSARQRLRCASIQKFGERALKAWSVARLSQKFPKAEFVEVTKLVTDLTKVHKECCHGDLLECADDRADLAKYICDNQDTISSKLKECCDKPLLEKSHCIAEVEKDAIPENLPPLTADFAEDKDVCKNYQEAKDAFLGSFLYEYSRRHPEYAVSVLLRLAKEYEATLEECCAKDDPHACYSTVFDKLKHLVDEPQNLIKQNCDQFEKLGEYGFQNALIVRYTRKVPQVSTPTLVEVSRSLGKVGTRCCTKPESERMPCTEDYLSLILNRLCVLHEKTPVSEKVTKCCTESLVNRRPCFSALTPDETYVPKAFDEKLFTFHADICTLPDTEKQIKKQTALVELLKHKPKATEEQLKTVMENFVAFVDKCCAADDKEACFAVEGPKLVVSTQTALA

In the case of Cc1ccc(CCN2C(=O)/C(=C/c3ccc(-c4ccc(C(=O)O)c(O)c4)o3)SC2=S)cc1 [Compound 9b, (Z)-2-hydroxy-4-(5-((3-(4-methylphenethyl)-4-oxo-2-thioxothiazolidin-5-ylidene)methyl)furan-2-yl)benzoic acid], the EC50 [1, 5] is reported as 404 ± 20 nM, the EC50 [1, 6] is reported as 46.7 ± 9 nM and the Papp [2] is reported as 2.32 1·10^-6cm/sec. For the same compound, the Kd [3] was 1550 ± 300 nM and the melting point was 258 °C (dec.).

O=C(O)c1ccc(-c2ccc(/C=C3\SC(=S)N(CCCc4ccccc4)C3=O)o2)cc1O [Compound 9c, (Z)-2-hydroxy-4-(5-((4-oxo-3-(3-phenylpropyl)-2-thioxothiazolidin-5-ylidene)methyl)furan-2-yl)benzoic acid] gave an EC50 [1, 5] of 378 ± 15 nM, an EC50 [1, 6] of 27.5 ± 4 nM and a CC50 [4, 7] of 205000 ± 30100 nM. For the same compound, the Papp [2] was 1.23 1·10^-6cm/sec, the Kd [3] was 1050 ± 100 nM and the melting point was 248 °C (dec.).

O=C(O)c1ccc(-c2ccc(/C=C3\SC(=S)N(Cc4ccc(Cl)c(F)c4)C3=O)o2)cc1O [Compound 9f, (Z)-4-(5-((3-(4-chloro-3-fluorobenzyl)-4-oxo-2-thioxothiazolidin-5-ylidene)methyl)furan-2-yl)-2-hydroxybenzoic acid] showed an EC50 [1, 5] of 560 ± 10 nM, an EC50 [1, 6] of 20 ± 4 nM and a CC50 [4, 7] of 7870 ± 2980 nM. For the same compound, the Papp [2] was 0.87 1·10^-6cm/sec and the Kd [3] was 1090 ± 900 nM.

For CCc1ccc(CCN2C(=O)/C(=C/c3ccc(-c4ccc(C(=O)O)c(O)c4)o3)SC2=S)cc1 [Compound 9d, (Z)-4-(5-((3-(4-ethylphenethyl)-4-oxo-2-thioxothiazolidin-5-ylidene)methyl)furan-2-yl)-2-hydroxybenzoic acid], the EC50 [1, 5] was 186 ± 9 nM, the EC50 [1, 6] was 36 ± 3 nM and the CC50 [4, 7] was 16900 ± 4310 nM. For the same compound, the Papp [2] was 1.50 1·10^-6cm/sec, the Kd [3] was 990 ± 900 nM and the melting point was 273 °C (dec.).

Work on O=C(O)c1ccc(-c2ccc(/C=C3\SC(=S)N(CCc4ccc(F)cc4)C3=O)o2)cc1O [Compound 9a, (Z)-4-(5-((3-(4-fluorophenethyl)-4-oxo-2-thioxothiazolidin-5-ylidene)methyl)furan-2-yl)-2-hydroxybenzoic acid] yielded an EC50 [1, 5] of 116 ± 24 nM, an EC50 [1, 6] of 7.5 nM and a CC50 [4, 7] greater than 300000 nM. For the same compound, the Papp [2] was 0.4 1·10^-6cm/sec, the Kd [3] was 1080 ± 200 nM and the melting point was 292 °C (dec.).

O=C(O)c1ccc(-c2ccc(/C=C3\SC(=S)N(Cc4ccc(Cl)cc4)C3=O)o2)cc1O [Compound 2] showed an EC50 [1, 5] of 650 nM, an EC50 [1, 6] of 6.9 nM and a CC50 ([4]; Vero cell CC50 (HSV-2 acyclovir resistant rows)) of 112000 ± 11600 nM. For the same compound, the CC50 ([4]; Vero cells, HSV-1 assay conditions, read-out: Vero cell CC50 (HSV-1)) was 98000 ± 23100 nM, the CC50 [4, 7] was 112000 ± 11600 nM and the Papp [2] was 1.26 1·10^-6cm/sec. For the same compound, the Kd [3] was 630 ± 100 nM.

O=C(O)c1ccc(-c2ccc(/C=C3\SC(=S)N(Cc4ccc(F)cc4)C3=O)o2)cc1O [Compound 1] showed an EC50 [1, 5] of 1395 ± 10 nM, an EC50 [1, 6] of 32.3 ± 3 nM and a CC50 [4, 7] of 224000 ± 78500 nM. The Papp [2] was 1.28 1·10^-6cm/sec and the Kd [3] was 680 ± 100 nM.

O=C(O)c1ccc(-c2ccc(/C=C3\SC(=S)N(c4ccc(F)c(Cl)c4)C3=O)o2)cc1O [Compound 9e, (Z)-4-(5-((3-(3-chloro-4-fluorophenyl)-4-oxo-2-thioxothiazolidin-5-ylidene)methyl)furan-2-yl)-2-hydroxybenzoic acid] gave an EC50 [1, 5] of 400 ± 14 nM, an EC50 [1, 6] of 26 ± 6 nM and a CC50 [4, 7] greater than 100000 nM. The Papp [2] was 0.92 1·10^-6cm/sec and the Kd [3] was 1070 ± 900 nM.
